Results on ten compounds are retold here after patent US11020374B2, “Sulcardine salts” (HUYA Bioscience International, LLC, priority 2019, dated 2021).

The conditions of data set [1]: cited from earlier work; for pKa 1: first pKa.
The nature of data set [2]: One-week stability studies (40° C./75% RH, 80° C., ambient light) by XRPD and HPLC. It is filed as physicochemical. Particulars: for HPLC purity after stability experiment: 99% before; for stability by XRPD / appearance: one week at 80° C. and ambient humidity. As to the method: For all of the stability studies provided herein under the condition of 40° C. and 75% RH, samples were in an uncapped vial and stored in a stability chamber set to 40° C./75% RH. For the 80° C. studies, samples were in a sealed vial and placed in an oven set to 80° C. For the ambient light studies, the samples were in a sealed vial placed on a windowsill in the lab which was exposed to ambient natural and artificial light.

The nature of data set [3]: Dynamic vapor sorption (DVS) experiment. It is filed as physicochemical. To be noted: for crystalline form of the salt before the DVS experiment and afterwards: XRPD form before vs after DVS; for uptake of water (DVS): at 90% RH.
The nature of data set [4]: Solubility in 20 mM buffers (Example 3), slurried ca. 72 hr, HPLC concentration. It is filed as physicochemical. Particulars: pH 1.2.
Method: 20 mM buffers were prepared to pH 1.2 (HCl/KCl), pH 3.0 (HCl/glycine), pH 4.0 (citric acid/sodium citrate) and pH 7.4 (potassium phosphate monobasic/NaOH). To 0.5 mL of each buffer, the appropriate salt was added to form a slurry. The pH of the slurry was measured and adjusted back to the desired pH (i.e., the initial pH of the buffer) if necessary using 0.2 M buffer components (e.g. 0.2 M HCl(aq)). […] After this time, if solid remained, the pH was again adjusted back to the desired pH if necessary using 0.2 M buffer components. If no solid remained, additional solid was added to reform the slurry before the pH was again adjusted back to the desired pH if necessary using 0.2 M buffer components. All samples were then slurried for a further 2 hr before being analysed by HPLC for concentration.
Data set [5] can be described thus: GVS (gravimetric vapor sorption) with post-GVS XRPD. It is filed as physicochemical. Particulars: 40-90-0-40% RH, 25° C., two cycles. As for the experimental part: Form II was first observed during the GVS characterization of Form I. The material collected post-GVS analysis of Form I was analyzed by XRPD. […] The XRPD reference is “LNB15318-53-1-PostGVS” in FIG. 34.
Approximately 26 mg of Form I was placed into a mesh vapor sorption balance pan and loaded into an IGASorp Moisture Sorption Analyser balance by Hiden Analytical. The sample was subjected to a ramping profile from 40-90% relative humidity (RH) at 10% increments, maintaining the sample at each step until a stable weight had been achieved (98% step completion, minimum step length 30 minutes, maximum step length 60 minutes) at 25° C. After completion of the sorption cycle, the sample was dried using the same procedure to 0% RH, and finally taken back to the starting point of 40% RH. Two cycles were performed. The weight change during the sorption/desorption cycles were plotted, allowing for the hygroscopic nature of the sample to be determined. The material collected post-GVS analysis was analyzed by XRPD.

A short description of data set [6]: Sulcardine salts PK analysis, oral capsule administration. It is filed as in vivo. Particulars: single oral capsule administration, fasted male Beagle dogs. As to the method: The pharmacokinetic objective of this study was to assess the exposure to sulcardine following oral capsule administration or intravenous (IV) infusion of sulcardine sulfate salt, sulcardine naphthoate salt, or sulcardine mono-edisylate salt (Form II) to male dogs during a pharmacokinetic study.
Non-naïve Beagle Dogs were fasted. Dosing formulations (oral [PO] capsule and intravenous [IV] infusion) were prepared on the day prior to dosing. The IV formulations were made in 10 mM Glycine (pH adjusted to 3.0±0.1), 3% Mannitol, qs in Sterile Water for Injection, USP were filtered through a 0.22 μm PVDF filter and stirred for at least 30 minutes prior to dosing. The capsule doses were encapsulated as active pharmaceutical ingredient powder into the appropriate number of […] gelatin capsules on the day prior to dosing.
Oral dosing was once on Day 1 by oral capsule administration; IV dosing was once on Day 1 by IV infusion over approximately 45 minutes (±2 minutes).
The blood samples for animals dosed orally were collected at 0.5, 1, 2, 3, 5, 8, 12, 18, 24, and 36 hours postdose. The blood samples for animals dosed IV were collected at approximately 0.33, 0.75 (end of infusion), 1.5, 3, 6, 9, 12, 18, and 24 hours post the start of infusion.
The blood samples were centrifuged under refrigerated (2° C. to 8° C.) conditions at 3,200 RPM for 10 minutes and the resulting plasma was divided into two aliquots (150 μL and remaining) then frozen and shipped for bioanalysis. Plasma samples were analyzed for concentrations of sulcardine by Citoxlab North America, Laval, Québec, Canada.
Individual sulcardine plasma concentration time profiles from sulcardine sulfate salt, sulcardine mono-edisylate salt, or sulcardine naphthoate salt treated animals were analyzed using model-independent methods (Gibaldi M, Perrier D. Pharmacokinetics. 2nd ed. New York: Marcel Dekker, Inc., 1982:409-17). Pharmacokinetic parameters were obtained/calculated for each animal on Day 1.

[7] abbreviates: one week at 40° C. and 75% RH, uncapped vial.
Where [8] appears, read: one week under ambient light conditions, sealed vial.
[9] abbreviates: one week under ambient light conditions.
Setting [10] is: increase in relative humidity (RH) from about 10% to about 90%.

Several values for one entry are separate records, joined by “and”; a condition that tells them apart may be missing. Identical values can stand only once. Counter-ions that a name gives are not always drawn.

Take `O=S(=O)(O)CCS(=O)(=O)O` [1,2-Ethanedisulfonic acid]: in data set [1], the “pKa 1” value is recorded as −2.06.

In the case of `COc1ccc(NS(=O)(=O)c2cc(CN3CCCC3)c(O)c(CN3CCCC3)c2)cc1.O=S(=O)(O)c1cccc2c(S(=O)(=O)O)cccc12` [Example 5, naphthalene-1,5-disulfonic acid salt of sulcardine], the “stability by XRPD” value in data set [2] (setting [7]) and in data set [2] (setting [8]) was “unchanged” in each case. In addition, the “HPLC purity after stability experiment” value came to 99% in data set [2] (one week at 40° C. and 75% RH); 99% in data set [2] (one week at 80° C.); 99% in data set [2] (setting [9]). Further, the “stability by XRPD / appearance” value in data set [2] (sealed vial) was “unchanged”. Moreover, the “crystalline form of the salt before the DVS experiment and afterwards” value (“crystalline form” below) in data set [3] was “the same”. In addition, in data set [3], the “uptake of water (DVS)” value was “about 3.3%”. The mass increase entry in data set [3] (increase in relative humidity (RH) from about 5% to about 95%) is on record as “about 3.3%”.

`COc1ccc(NS(=O)(=O)c2cc(CN3CCCC3)c(O)c(CN3CCCC3)c2)cc1.O=C(O)c1ccc2ccccc2c1O` [Example 8, 1-hydroxy-2-naphthoic acid salt of sulcardine]: the “Crystallinity of the material in the solubility experiment” value in data set [4] is given as “loses crystallinity”. In addition, the mass increase result in data set [3] (setting [10]) is recorded as “about 0.7%”.

On to `COc1ccc(NS(=O)(=O)c2cc(CN3CCCC3)c(O)c(CN3CCCC3)c2)cc1.O=S(=O)(O)c1ccc2ccccc2c1` [Example 10, naphthalene-2-sulfonic acid salt of sulcardine], for which the “stability by XRPD” value was “unchanged” in data set [2] (setting [7]); “unchanged by XRPD but had turned pale yellow” in data set [2] (setting [8]); “unchanged” in data set [2] (one week under ambient light conditions, sealed vial, listed as Example 9). The “HPLC purity after stability experiment” value in data set [2] (one week at 40° C. and 75% RH) is 99% and 98%; in data set [2] (one week at 80° C.), 90%; in data set [2] (one week at 80° C., listed as Example 9) it was 99%; in data set [2] (setting [9]) it was 99% and 97%. Also, the “stability by XRPD / appearance” value is “changed into an orange gel” in data set [2] (sealed vial) and “unchanged” in data set [2] (sealed vial, listed as Example 9).

In the case of `COc1ccc(S(=O)(=O)NCc2cc(CN3CCCC3)c(O)c(CN3CCCC3)c2)cc1` [Example 12, sulcardine hydrochloride], the “stability by XRPD” value in data set [2] (setting [7]) and in data set [2] (setting [8]) was “unchanged” in each case. Moreover, the “HPLC purity after stability experiment” value in data set [2] (one week at 40° C. and 75% RH) was 98%; in data set [2] (one week at 80° C.), 90%; in data set [2] (setting [9]), 99%. Besides, the “stability by XRPD / appearance” value in data set [2] (sealed vial) was “changed into an orange gel”. In data set [3], the “crystalline form” value is given as “the same”. In data set [3], the “uptake of water (DVS)” value is recorded as “about 2.2%”. In addition, the mass increase result in data set [3] (setting [10]) is given as “about 2.2%”.

Take `COc1ccc(NS(=O)(=O)c2cc(CN3CCCC3)c(O)c(CN3CCCC3)c2)cc1.COc1ccc(NS(=O)(=O)c2cc(CN3CCCC3)c(O)c(CN3CCCC3)c2)cc1.O=S(=O)(O)CCS(=O)(=O)O` [Example 14, hemi-ethane-1,2-disulfonic acid salt of sulcardine]: the “stability by XRPD” value in data set [2] (setting [7]) and in data set [2] (setting [8]) was “unchanged” in each case. Further, the “HPLC purity after stability experiment” value in data set [2] (one week at 40° C. and 75% RH) is 98%; in data set [2] (one week at 80° C.), 97%; in data set [2] (setting [9]) it was 97%. In addition, the “stability by XRPD / appearance” value in data set [2] (sealed vial) is reported as “unchanged”. Further, the “crystalline form” value in data set [3] was “the same”. For the same compound, the “uptake of water (DVS)” value in data set [3] is on record as “about 0.5%”. Also, in data set [3] (setting [10]), the mass increase entry is “about 0.5%”.

Take `COc1ccc(NS(=O)(=O)c2cc(CN3CCCC3)c(O)c(CN3CCCC3)c2)cc1.O=S(=O)(O)CCS(=O)(=O)O` [Example 17, mono-ethane-1,2-disulfonic acid salt of sulcardine]: in data set [5], the “XRPD of material collected post-GVS analysis” value is “A new pattern (denoted Form II) was observed”.

`COc1ccc(NS(=O)(=O)c2cc(CN3CCCC3)c(O)c(CN3CCCC3)c2)cc1.O=S(=O)(O)CCS(=O)(=O)O` [Example 18, mono-ethane-1,2-disulfonic acid salt of sulcardine]: the “Cmax of sulcardine in plasma” value in data set [6] (group average) stood at 4.57 µg/mL. Also, in data set [6] (median), the “Tmax (median peak sulcardine plasma concentration)” value amounted to 0.5 h.

Take `COc1ccc(S(=O)(=O)NCc2cc(CN3CCCC3)c(O)c(CN3CCCC3)c2)cc1` [Sulcardine free base comparator, 4-methoxy-N-(3,5-bis-(1-pyrrolidinylmethyl)-4-hydroxybenzyl)benzene sulfonamide]: in data set [1], the “pKa 1” value is on record as 6.00. Also, the “pKa 2” value in data set [1] (second pKa) is reported as 10.57. For the same compound, the “pKa 3” value in data set [1] (third pKa) is on record as 11.65.

Regarding `COc1ccc(S(=O)(=O)NCc2cc(CN3CCCC3)c(O)c(CN3CCCC3)c2)cc1` [sulfate salt, Sulcardine sulfate, reference compound], the Cmax (as a rule, the maximum level reached in the sampled fluid or tissue) in data set [6] (dog, plasma, group average) amounted to 2.82 µg/mL. For the same compound, the Tmax in data set [6] (dog, plasma, median, read-out: Tmax (median peak sulcardine plasma concentration)) amounted to 2 h.
